The NIST ThermoML archive (doi:10.1016/j.jct.2013.04.001)

Assay: mn = molality of the nth substance listed, in mol/kg
Settings: 101 kPa, Liquid; for mass density: Pycnometric method; for viscosity: Capillary tube (Ostwald / Ubbelohde) method

N=C(N)NCCC[C@H](N)C(=O)O [L-arginine] + O
Settings	mass density [kg/m3]	viscosity [mPa·s]
293.15 K, m1 = 0.025	999.51	–
293.15 K, m1 = 0.05	1000.78	–
293.15 K, m1 = 0.075	1002.04	–
293.15 K, m1 = 0.1	1003.3	–
293.15 K, m1 = 0.125	1004.55	–
293.15 K, m1 = 0.15	1005.79	–
293.15 K, m1 = 0.175	1007.02	–
293.15 K, m1 = 0.2	1008.25	–
298.15 K, m1 = 0.025	998.35	0.9009
298.15 K, m1 = 0.05	999.62	0.9108
298.15 K, m1 = 0.075	1000.89	0.9207
298.15 K, m1 = 0.1	1002.14	0.93
298.15 K, m1 = 0.125	1003.4	0.9393
298.15 K, m1 = 0.15	1004.64	0.9486
298.15 K, m1 = 0.175	1005.88	0.9579
298.15 K, m1 = 0.2	1007.11	0.9668
303.15 K, m1 = 0.025	996.96	0.8062
303.15 K, m1 = 0.05	998.24	0.8145
303.15 K, m1 = 0.075	999.51	0.8225
303.15 K, m1 = 0.1	1000.78	0.8304
303.15 K, m1 = 0.125	1002.03	0.838
303.15 K, m1 = 0.15	1003.28	0.8457
303.15 K, m1 = 0.175	1004.53	0.8533
303.15 K, m1 = 0.2	1005.76	0.8609
308.15 K, m1 = 0.025	995.36	0.7267
308.15 K, m1 = 0.05	996.65	0.7336
308.15 K, m1 = 0.075	997.93	0.7403
308.15 K, m1 = 0.1	999.2	0.7471
308.15 K, m1 = 0.125	1000.46	0.7535
308.15 K, m1 = 0.15	1001.72	0.7601
308.15 K, m1 = 0.175	1002.97	0.7664
308.15 K, m1 = 0.2	1004.22	0.7726
313.15 K, m1 = 0.025	993.55	0.6593
313.15 K, m1 = 0.05	994.85	0.6652
313.15 K, m1 = 0.075	996.14	0.6708
313.15 K, m1 = 0.1	997.42	0.6764
313.15 K, m1 = 0.125	998.69	0.6818
313.15 K, m1 = 0.15	999.96	0.6873
313.15 K, m1 = 0.175	1001.22	0.6926
313.15 K, m1 = 0.2	1002.47	0.6976
318.15 K, m1 = 0.025	991.55	0.6031
318.15 K, m1 = 0.05	992.86	0.608
318.15 K, m1 = 0.075	994.16	0.6128
318.15 K, m1 = 0.1	995.45	0.6174
318.15 K, m1 = 0.125	996.74	0.622
318.15 K, m1 = 0.15	998.01	0.6266
318.15 K, m1 = 0.175	999.28	0.6311
318.15 K, m1 = 0.2	1000.55	0.6355
